For this assay, the system named is human ovarian cancer cell line (A2780). The assay can be described thus: Combined effect in model animal transplanted with human ovarian cancer cell line (A2780). The class given is in vivo. Particulars: A2780 s.c. in nude mouse, Compound A 10 mg/kg, Compound B 100 mg/kg, oral once daily, average ± standard deviation. The method, then:
The human ovarian cancer cell line A2780 (ATCC) was cultured using a 10% FBS-containing RPMI 1640 medium (SIGMA) in a 5% CO2 incubator under the condition of 37° C. When the cells reached a state of approximately 80% confluency, the cells were collected using trypsin-EDTA. To these cells, a Hanks' Balanced Salt Solution containing 50% Matrigel was added to prepare a suspension at a concentration of 5.0×10^7 cells/mL. The cell suspension thus obtained was subcutaneously transplanted at the lateral side of the body of a nude mouse (CAnN.Cg-Foxn1nu/CrlCrlj, Charles River Laboratories Japan, Inc.) in an amount of 0.1 mL, where each group contained six mice. Compound A (10 mg/kg, once daily, for 10 days) and Compound B (100 mg/kg, once daily, for 10 days) were orally administered, either individually or both in a row.
Setting the initial day of administration at Day 0, the major axis and the minor axis of a tumor developed in each mouse were measured using Digimatic caliper (Mitsutoyo Corporation) thereafter on Day 3, 5, 8, and 10.
The tumor volume and the relative tumor volume were calculated according to the equations below. TV=major axis (mm)×minor axis^2 (mm^2)/2 RTV=TV on the day of measurement/TV on the initial day of administration

Each structure is given as a SMILES string. Counter-ions that a name gives are not always drawn.

As for `COc1cc2nccc(Oc3ccc(NC(=O)NC4CC4)c(Cl)c3)c2cc1C(N)=O` [Compound A, 4-(3-chloro-4-(cyclopropylaminocarbonyl)aminophenoxy)-7-methoxy-6-quinolinecarboxamide mesylate], the “RTV (relative tumor volume) Day 3” value is on record as 1.92 ± 0.17, the “RTV (relative tumor volume) Day 5” value was 4.77 ± 0.85, the “RTV (relative tumor volume) Day 8” value is given as 9.51 ± 2.44 and the “RTV (relative tumor volume) Day 10” value worked out at 12.37 ± 3.53.

As to `CN1CCN(C2CCN(C(=O)Nc3cc(Oc4ccc(NC(=O)C5(C(=O)Nc6ccc(F)cc6)CC5)c(F)c4)ccn3)CC2)CC1` [Compound B, N-(2-fluoro-4-{[2-({[4-(4-methylpiperazin-1-yl)piperidin-1-yl]carbonyl}amino)pyridin-4-yl]oxy}phenyl)-N′-(4-fluorophenyl)cyclopropane-1,1-dicarboxamide tartrate], the “RTV (relative tumor volume) Day 3” value amounted to 2.23 ± 0.42, the “RTV (relative tumor volume) Day 5” value turned out to be 7.01 ± 1.54, the “RTV (relative tumor volume) Day 8” value was 15.70 ± 2.27 and the “RTV (relative tumor volume) Day 10” value was 21.29 ± 2.76.

(Values after patent US9012458B2, “Antitumor agent using compounds having kinase inhibitory effect in combination” (Eisai R&D Management Co., Ltd., priority 2010, dated 2015).)
